Experimental data reported in patent publication US20200171026A1, “PROSTACYCLIN RECEPTOR AGONISTS FOR REDUCTION OF BODY FAT” (Allergan, Inc., priority 2017, published 2020).

Experiments:
[1] = test system: human adipocytes; assay: human adipocyte lipolysis assay (glycerol released into the medium); format: cell-based; conditions: for glycerol release / lipolytic activity in human adipocytes (FIG. 2): fully differentiated human adipocytes, 1 μM
Experimental: Two weeks after the initiation of differentiation, differentiated cells appeared rounded with large lipid droplets apparent in the cytoplasm, and were thereby considered mature adipocytes. At this time, the differentiation medium was washed out. Two days after washing out the differentiation agents, the mature adipocytes were treated with different concentrations of PGI2 receptor agonist compounds cicaprost, beraprost, FK-788 and selexipag. Lipolytic activity was assessed by the measurement of glycerol released into the medium from triglyceride breakdown. In this experiment, lipolysis was measured using a human adipocyte lipolysis assay kit (ZenBio, Inc., Research Triangle Park, N.C., Cat #LIP-1-SPF).
The data are provided in FIG. 1 and are expressed as fold induction over a buffer control (mature adipocytes treated with vehicle buffer in the absence of any agonist). Each data point on the graph in FIG. 1 represents the mean±SEM of 2 to 8 experiments.
The in vitro human adipocytes lipolysis results for cicaprost and FK-788 from Example 1 at the 1 μM concentration were compared to lipolysis induced by those compounds in ex vivo mouse adipocytes, which are commonly used to detect lipolytic activity.

[2] = test system: fat in the triceps region; assay: In vivo human study, topical ointment, body fat calipers in triceps region; conditions: human subjects; topical ointment 0.003%, 0.03% or 0.3% daily; 6 months
From the text: The following experiment describes a randomized, double-blind study in human subjects to test whether compounds according to the present disclosure, including topical FK-788, reduces fat in the body of individuals.
Multiple human subjects (both male and female), for example, with body mass indices of 30 or more but otherwise healthy, are entered into a randomized double-blind study. Either the left or the right arm is randomized to receive topical FK-788; the other arm receives vehicle only. FK-788 is supplied in a petrolatum-based ointment (the vehicle) at a final concentration of 0%, 0.003%, 0.03% or 0.3%. Ointment containers are unlabeled as to the presence or concentration of FK-788.
Each day, subjects apply a thin film of ointment to the skin over the respective triceps while wearing new, clean surgical gloves. Subjects are instructed to refrain from washing the treated area for at least 8 hours and are instructed to refrain from wearing tight clothing or occlusive dressings that will come into contact with the treated area.
Body fat calipers are used to measure fat in the triceps region bilaterally on a weekly basis. The study continues for 6 months. […] As a result, this contemplated outcome will show, in vivo, that compounds according to the present invention, including FK-788, can reduce fat.

[3] = fold induction over buffer control

| relative potency among the PGI2 receptor agonists tested ([1]; human mature adipocytes, cicaprost, beraprost, FK-788 and selexipag compared) | Structure (SMILES) | glycerol release / lipolytic activity in human adipocytes (FIG. 2) [1, 3] | increase in glycerol production ([1]; human mature adipocytes, concentration of about 0.1 μM, fold induction over buffer control) | fat in treated arm compared to vehicle-treated arm [2] |
| --- | --- | --- | --- | --- |
| most potent agonist | CCC#CC[C@H](C)[C@H](O)C#C[C@@H]1[C@H]2C/C(=C/COCC(=O)O)C[C@H]2C[C@H]1O [cicaprost, 2-[(2E)-2-[(3aS,4S,5R,6aS)-5-hydroxy-4-[(3S,4S)-3-hydroxy-4-methylnona-1,-6-diynyl]-3,3a,4,5,6,6a-hexahydro-1H-pentalen-2-ylidene]ethoxy]acetic acid] | increased glycerol release | approximately 3 fold | – |
| – | O=C(O)COc1cccc2c1CC[C@](O)(COC(=O)N(c1ccccc1)c1ccccc1)C2 [FK-788, 2-[[(6R)-6-[di(phenyl)carbamoyloxymethyl]-6-hydroxy-7,8-dihydro-5H-naphthalen-1-yl]oxy]acetic acid] | increased glycerol release | – | lower fat |
